Measured values from ChEMBL document CHEMBL4041499, “Synthesis and evaluation of 7-substituted coumarin derivatives as multimodal monoamine oxidase-B and cholinesterase inhibitors for the treatment of Alzheimer's disease” (Eur J Med Chem, 2017).

Key:
[1] = target: Acetylcholinesterase (Electrophorus electricus, UniProt O42275)
[2] = target: Cholinesterase (Equus caballus, UniProt P81908)
[3] = target: T1, Amine oxidase [flavin-containing] A (Homo sapiens, UniProt P21397); type: ADME
T1 sequence (P21397 whole entry): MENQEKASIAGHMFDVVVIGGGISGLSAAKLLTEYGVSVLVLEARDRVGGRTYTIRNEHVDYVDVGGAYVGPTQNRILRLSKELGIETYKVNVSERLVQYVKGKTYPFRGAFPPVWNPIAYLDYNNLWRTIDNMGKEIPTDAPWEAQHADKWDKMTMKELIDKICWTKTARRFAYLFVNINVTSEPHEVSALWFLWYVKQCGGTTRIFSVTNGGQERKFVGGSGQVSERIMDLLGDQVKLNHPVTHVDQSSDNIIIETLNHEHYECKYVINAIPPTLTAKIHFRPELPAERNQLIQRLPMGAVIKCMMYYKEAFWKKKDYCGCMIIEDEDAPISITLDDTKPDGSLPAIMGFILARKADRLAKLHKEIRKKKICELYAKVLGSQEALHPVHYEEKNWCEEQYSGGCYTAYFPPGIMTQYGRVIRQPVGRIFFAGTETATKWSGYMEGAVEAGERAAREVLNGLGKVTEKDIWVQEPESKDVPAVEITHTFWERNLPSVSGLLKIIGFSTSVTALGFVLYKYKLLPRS
Description: Inhibition of recombinant human MAO-A assessed as reduction in 4-hydroxyquinolone production using kynuramine as substrate after 20 mins by fluorescence assay

Chain of Acetylcholinesterase (O42275 whole entry): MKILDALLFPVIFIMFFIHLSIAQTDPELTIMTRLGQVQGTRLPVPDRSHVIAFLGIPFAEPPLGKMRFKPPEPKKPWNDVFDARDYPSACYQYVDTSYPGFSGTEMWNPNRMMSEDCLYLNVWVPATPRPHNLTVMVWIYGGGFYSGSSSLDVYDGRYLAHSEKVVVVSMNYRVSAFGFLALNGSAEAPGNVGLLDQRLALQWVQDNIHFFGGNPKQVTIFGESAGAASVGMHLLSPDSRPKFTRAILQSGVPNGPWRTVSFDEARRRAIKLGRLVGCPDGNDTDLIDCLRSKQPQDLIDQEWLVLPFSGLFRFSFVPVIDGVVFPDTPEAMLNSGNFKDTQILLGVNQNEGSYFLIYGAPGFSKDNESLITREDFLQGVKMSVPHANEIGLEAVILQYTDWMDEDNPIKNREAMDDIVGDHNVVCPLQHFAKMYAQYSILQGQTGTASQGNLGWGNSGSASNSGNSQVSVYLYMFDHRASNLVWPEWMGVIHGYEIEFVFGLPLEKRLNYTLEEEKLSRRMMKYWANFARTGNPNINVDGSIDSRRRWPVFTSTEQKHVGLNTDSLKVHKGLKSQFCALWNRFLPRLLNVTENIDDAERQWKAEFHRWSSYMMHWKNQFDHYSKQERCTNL
Chain of Cholinesterase (P81908 whole entry): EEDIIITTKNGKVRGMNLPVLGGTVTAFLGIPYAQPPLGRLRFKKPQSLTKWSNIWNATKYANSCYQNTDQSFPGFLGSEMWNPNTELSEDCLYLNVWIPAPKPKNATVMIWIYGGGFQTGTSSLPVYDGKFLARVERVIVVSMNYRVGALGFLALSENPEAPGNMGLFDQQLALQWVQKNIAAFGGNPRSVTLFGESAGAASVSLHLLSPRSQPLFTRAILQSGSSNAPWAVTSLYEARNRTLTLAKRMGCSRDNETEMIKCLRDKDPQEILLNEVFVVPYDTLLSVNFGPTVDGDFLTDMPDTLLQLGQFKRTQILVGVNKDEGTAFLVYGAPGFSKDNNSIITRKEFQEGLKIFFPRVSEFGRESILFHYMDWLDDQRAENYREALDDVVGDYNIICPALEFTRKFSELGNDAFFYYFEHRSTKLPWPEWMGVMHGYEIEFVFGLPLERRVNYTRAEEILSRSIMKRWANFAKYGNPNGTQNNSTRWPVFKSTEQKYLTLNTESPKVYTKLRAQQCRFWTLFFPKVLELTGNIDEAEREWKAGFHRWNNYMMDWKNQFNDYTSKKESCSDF

| Compound | IC50 [1] [µM] | IC50 [2] [µM] | IC50 [3] [µM] |
| --- | --- | --- | --- |
| Cc1c(C#N)c(=O)oc2cc(OCc3ccc(Cl)cc3)ccc12 | > 100 | > 100 |  |
| O=c1cc(C(F)(F)F)c2ccc(OCCN3CCN(Cc4ccc(Br)cc4)CC3)cc2o1 | > 100 | > 100 | > 10 |
| O=c1ccc2ccc(OCCN3CCCCC3)cc2o1 | 54.9 |  |  |
| O=c1ccc2ccc(OCCN3CCN(Cc4ccc(Br)cc4)CC3)cc2o1 | > 100 | 50.1 | > 10 |
| Cc1c(Cl)c(=O)oc2cc(OCCN3CCC(Cc4ccccc4)CC3)ccc12 | 31.3 | 1.27 | > 10 |
| O=c1ccc2ccc(OCc3ccc(Br)cc3)cc2o1 | > 100 | > 100 |  |
| Cc1c(C#N)c(=O)oc2cc(OCc3ccc(Br)cc3Br)ccc12 | > 100 | > 100 | 0.72 |
| O=c1ccc2ccc(OCCN3CCC(Cc4ccccc4)CC3)cc2o1 | 36.7 | 20.3 | > 10 |
| Cc1c(Cl)c(=O)oc2cc(OCc3ccc(Br)cc3)ccc12 | > 100 | > 100 |  |
| Cc1c(C#N)c(=O)oc2cc(OCc3ccc(F)cc3)ccc12 | > 100 | > 100 |  |
| Cc1cc(=O)oc2cc(OCCN3CCN(Cc4ccc(Br)cc4)CC3)ccc12 | 12.8 | 9.7 | > 10 |
| O=c1cc(C(F)(F)F)c2ccc(OCc3ccc(Br)cc3)cc2o1 | > 100 | > 100 | > 10 |
| Cc1c(C#N)c(=O)oc2cc(OCCN3CCC(Cc4ccccc4)CC3)ccc12 | 9.1 | 5.9 | > 10 |
| Cc1c(C#N)c(=O)oc2cc(OCCN3CCN(Cc4ccc(Br)cc4)CC3)ccc12 | 38.5 | 13.3 | > 10 |
| Cc1c(C#N)c(=O)oc2cc(OCc3ccccc3Br)ccc12 | > 100 | > 100 | > 10 |
| Cc1cc(=O)oc2cc(OCCN3CCCCC3)ccc12 | 66.4 |  |  |
| O=c1cc(C(F)(F)F)c2ccc(OCCN3CCC(Cc4ccccc4)CC3)cc2o1 | > 100 | > 100 | > 10 |
| Cc1c(Cl)c(=O)oc2cc(OCc3ccccc3)ccc12 | > 100 | 0.96 | 2.13 |
| Cc1c(C#N)c(=O)oc2cc(OCc3ccccc3)ccc12 | > 100 | 21.8 | 1.38 |
| Cc1cc(=O)oc2cc(OCCN3CCC(Cc4ccccc4)CC3)ccc12 | 29.4 | 5.19 | > 10 |
| Cc1cc(=O)oc2cc(OCc3ccc(Br)cc3)ccc12 | > 100 | > 100 | 0.05 |
| Cc1c(Cl)c(=O)oc2cc(OCCN3CCN(Cc4ccc(Br)cc4)CC3)ccc12 | > 100 | 3.12 | > 10 |
| Cc1c(C#N)c(=O)oc2cc(OCc3ccc(Br)cc3)ccc12 | > 100 | > 100 |  |
